Results published in patent US20120309683A1, “USE OF […] ADENYLATE CYCLASE-ACTIVATING POLYPEPTIDE (PACAP) AND PACAP ANALOGS AS ADJUNCTIVE TREATMENTS WITH INHIBITORS OF CALCINEURIN OR INHIBITORS OF THE […] TARGET OF RAPAMYCIN (mTOR) COMPLEXES” (The Administrators of the Tulane Educational Fund, priority 2010, published 2012).

Key:
[1] = system: IL-2 synthesis; conditions: cited from earlier work
[2] = system: HK-2 human kidney cells (human renal proximal tubule epithelial cells); experiment: Tacrolimus-induced loss of viability of HK-2 cells, lactate dehydrogenase in intact cells; type: cell-based; conditions: tacrolimus alone, HK-2 cells
Description: The HK-2 human kidney cells were cultured in Keratinocyte-Serum Free Medium supplemented with recombinant epidermal growth factor and bovine pituitary extract. […] Each value represents the mean plus/minus the standard error of five determinations. **p<0.01 and *p<0.05 compared to the cells treated only with tacrolimus.

## C=CC[C@@H]1/C=C(\C)C[C@H](C)C[C@H](OC)[C@H]2O[C@@](O)(C(=O)C(=O)N3CCCC[C@H]3C(=O)O[C@H](/C(C)=C/[C@@H]3CC[C@@H](O)[C@H](OC)C3)[C@H](C)[C@@H](O)CC1=O)[C@H](C)C[C@@H]2OC [tacrolimus, reference compound]
[1]
  potency as an inhibitor of IL-2 synthesis relative to cyclosporine A: about 100 -fold
[2]
  number of viable cells: large significant decrease in the number of viable cells
